This passage reports mortality results from US9079152B2, “Encapsulated essential oils” (BEN GURION UNIVERSITY OF THE NEGEV RESEARCH AND DEVELOPMENT …, priority 2004, dated 2015).

The subject of this data set is mosquito larvae. Kind of data set: Comparison tests of cyromazine for larvicidal activity. As to conditions: 0.5 g/m^2 of cyromazine; after 3 days. Type of data set: in vivo. The protocol:
Tests with cyromazine, an insect growth regulator produced by Novartis, was tested for larvicidal activity, either as such or in encapsulated form An effective concentration of 0.5 g/m^2 of cyromazine gave 60% mortality after 3 days, and the best sustained-release formulation gave. 100% mortality after 8 days.

For `Nc1nc(N)nc(NC2CC2)n1` [cyromazine], the mortality is reported as 60%.
